{
  "source": "patent US20220331274A1",
  "about": "“METHODS OF TREATING CANCER” (Inspirna, Inc., priority 2019, published 2022)",
  "key": {"[1]": {"system": "MDSCs", "experiment": "reduction of MDSCs in circulation and in tumors", "assay_type": "in vivo"}, "[2]": {"target": "CYP2E1 (Homo sapiens, UniProt P05181)", "experiment": "in vitro CYP metabolism", "assay_type": "in vitro ADME"}, "[3]": {"target": "2E1 (Homo sapiens, UniProt P05181)", "experiment": "in vitro CYP450 inhibition", "assay_type": "in vitro ADME"}, "[4]": {"system": "TNBC metastasis", "experiment": "mouse model of TNBC metastasis", "conditions": "in vivo"}, "[5]": {"system": "cancer cells", "experiment": "cancer cell invasion in vitro", "assay_type": "cell-based"}, "[6]": {"experiment": "oral PK study in male Beagle dogs", "assay_type": "in vivo", "conditions": "dog, plasma"}, "[7]": {"target": "3A4 (Homo sapiens, UniProt P08684)", "sequence (P08684 whole entry)": "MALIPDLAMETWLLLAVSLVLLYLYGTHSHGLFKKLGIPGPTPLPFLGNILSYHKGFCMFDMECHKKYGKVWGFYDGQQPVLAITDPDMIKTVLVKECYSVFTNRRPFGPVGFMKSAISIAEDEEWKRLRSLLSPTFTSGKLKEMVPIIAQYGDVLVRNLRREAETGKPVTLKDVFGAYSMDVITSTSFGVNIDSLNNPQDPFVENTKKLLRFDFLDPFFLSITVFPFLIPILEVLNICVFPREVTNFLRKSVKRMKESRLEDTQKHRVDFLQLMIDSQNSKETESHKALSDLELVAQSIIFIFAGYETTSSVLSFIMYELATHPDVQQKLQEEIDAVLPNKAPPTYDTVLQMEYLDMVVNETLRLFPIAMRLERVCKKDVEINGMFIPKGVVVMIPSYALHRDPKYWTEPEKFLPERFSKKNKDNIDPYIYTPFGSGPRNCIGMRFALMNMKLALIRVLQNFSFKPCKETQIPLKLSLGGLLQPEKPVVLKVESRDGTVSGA", "experiment": "in vitro CYP450 inhibition", "assay_type": "in vitro ADME"}, "[8]": {"target": "CYP2C19 (Homo sapiens, UniProt P33261)", "sequence (P33261 whole entry)": "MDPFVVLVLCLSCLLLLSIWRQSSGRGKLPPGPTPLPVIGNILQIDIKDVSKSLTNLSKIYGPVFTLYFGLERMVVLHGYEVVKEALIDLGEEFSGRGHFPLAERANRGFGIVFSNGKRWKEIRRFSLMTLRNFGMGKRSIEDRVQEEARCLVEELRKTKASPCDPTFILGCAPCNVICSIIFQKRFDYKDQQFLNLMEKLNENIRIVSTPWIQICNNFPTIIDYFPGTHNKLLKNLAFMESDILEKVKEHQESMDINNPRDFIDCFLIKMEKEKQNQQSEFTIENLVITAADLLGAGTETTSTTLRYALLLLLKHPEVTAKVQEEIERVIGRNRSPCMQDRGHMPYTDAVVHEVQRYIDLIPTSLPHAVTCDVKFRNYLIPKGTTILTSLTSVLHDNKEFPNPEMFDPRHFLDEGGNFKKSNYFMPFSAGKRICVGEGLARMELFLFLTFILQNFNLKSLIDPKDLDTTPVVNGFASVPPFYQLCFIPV", "experiment": "in vitro CYP metabolism", "assay_type": "in vitro ADME"}, "[9]": {"experiment": "oral PK study in Cynomolgus monkeys", "assay_type": "in vivo", "conditions": "cynomolgus monkey, plasma"}, "[10]": {"target": "P-glucoprotein (P-gp) (Homo sapiens, UniProt P08183)", "experiment": "efflux transporter inhibition in vitro", "assay_type": "in vitro ADME"}, "[11]": {"target": "OATP1B3 (Homo sapiens, UniProt Q9NPD5)", "experiment": "uptake transporter inhibition in vitro", "assay_type": "in vitro ADME"}, "[12]": {"system": "tumor growth", "experiment": "tumor growth studies, minimum efficacious dose and exposure", "assay_type": "in vivo"}, "[13]": {"target": "CYP2C8 (Homo sapiens, UniProt P10632)", "sequence (P10632 whole entry)": "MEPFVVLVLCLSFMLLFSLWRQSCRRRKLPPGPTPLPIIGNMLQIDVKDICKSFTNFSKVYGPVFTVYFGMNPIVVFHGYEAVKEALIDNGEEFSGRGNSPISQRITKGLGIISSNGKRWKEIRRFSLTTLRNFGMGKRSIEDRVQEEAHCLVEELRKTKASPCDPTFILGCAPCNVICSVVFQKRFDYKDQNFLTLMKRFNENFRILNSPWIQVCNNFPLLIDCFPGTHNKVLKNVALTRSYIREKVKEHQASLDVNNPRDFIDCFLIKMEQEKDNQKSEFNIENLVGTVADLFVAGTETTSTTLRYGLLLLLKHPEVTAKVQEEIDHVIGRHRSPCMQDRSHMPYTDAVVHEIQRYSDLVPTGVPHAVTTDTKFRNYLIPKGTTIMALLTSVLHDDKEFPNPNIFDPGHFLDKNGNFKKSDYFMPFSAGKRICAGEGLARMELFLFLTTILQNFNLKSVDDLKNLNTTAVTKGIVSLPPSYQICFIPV", "experiment": "in vitro CYP450 inhibition", "assay_type": "in vitro ADME", "conditions": "read-out: 50% inhibitory concentration [IC50] CYP2C8"}, "[14]": {"target": "1A1 (Homo sapiens, UniProt P04798)", "sequence (P04798 whole entry)": "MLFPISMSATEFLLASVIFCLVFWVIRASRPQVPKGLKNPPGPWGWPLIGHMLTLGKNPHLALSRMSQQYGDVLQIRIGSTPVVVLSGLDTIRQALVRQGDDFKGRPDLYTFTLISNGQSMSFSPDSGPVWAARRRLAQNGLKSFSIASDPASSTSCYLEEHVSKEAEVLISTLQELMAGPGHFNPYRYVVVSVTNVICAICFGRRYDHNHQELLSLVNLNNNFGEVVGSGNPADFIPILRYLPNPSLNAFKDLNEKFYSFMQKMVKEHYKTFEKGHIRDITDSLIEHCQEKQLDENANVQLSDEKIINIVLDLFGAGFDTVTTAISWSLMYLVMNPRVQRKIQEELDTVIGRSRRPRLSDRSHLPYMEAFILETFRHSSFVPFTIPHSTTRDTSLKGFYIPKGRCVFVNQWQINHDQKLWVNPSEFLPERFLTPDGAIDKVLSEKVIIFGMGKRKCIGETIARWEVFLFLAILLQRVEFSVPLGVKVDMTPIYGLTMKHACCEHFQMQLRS", "experiment": "in vitro CYP450 inhibition", "assay_type": "in vitro ADME"}, "[15]": {"experiment": "pre-clinical toxicity studies", "assay_type": "in vivo"}, "[16]": {"target": "CYP2C9 (Homo sapiens, UniProt P11712)", "sequence (P11712 whole entry)": "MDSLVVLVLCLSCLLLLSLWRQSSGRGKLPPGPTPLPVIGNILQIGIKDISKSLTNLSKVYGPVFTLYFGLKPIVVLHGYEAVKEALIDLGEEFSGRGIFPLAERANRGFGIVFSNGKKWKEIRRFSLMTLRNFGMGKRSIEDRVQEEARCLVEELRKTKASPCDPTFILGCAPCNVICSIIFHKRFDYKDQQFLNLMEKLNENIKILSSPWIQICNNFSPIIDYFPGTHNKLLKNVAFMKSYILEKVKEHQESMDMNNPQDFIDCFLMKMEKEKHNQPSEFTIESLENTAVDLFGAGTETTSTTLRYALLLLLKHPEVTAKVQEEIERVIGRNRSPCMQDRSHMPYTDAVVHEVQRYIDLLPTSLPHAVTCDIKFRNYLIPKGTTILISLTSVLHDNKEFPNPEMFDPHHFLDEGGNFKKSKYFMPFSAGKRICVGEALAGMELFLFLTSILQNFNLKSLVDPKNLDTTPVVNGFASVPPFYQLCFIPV", "experiment": "in vitro CYP metabolism", "assay_type": "in vitro ADME"}, "[17]": {"target": "BCRP (Homo sapiens, UniProt Q9UNQ0)", "sequence (Q9UNQ0 whole entry, species assumed)": "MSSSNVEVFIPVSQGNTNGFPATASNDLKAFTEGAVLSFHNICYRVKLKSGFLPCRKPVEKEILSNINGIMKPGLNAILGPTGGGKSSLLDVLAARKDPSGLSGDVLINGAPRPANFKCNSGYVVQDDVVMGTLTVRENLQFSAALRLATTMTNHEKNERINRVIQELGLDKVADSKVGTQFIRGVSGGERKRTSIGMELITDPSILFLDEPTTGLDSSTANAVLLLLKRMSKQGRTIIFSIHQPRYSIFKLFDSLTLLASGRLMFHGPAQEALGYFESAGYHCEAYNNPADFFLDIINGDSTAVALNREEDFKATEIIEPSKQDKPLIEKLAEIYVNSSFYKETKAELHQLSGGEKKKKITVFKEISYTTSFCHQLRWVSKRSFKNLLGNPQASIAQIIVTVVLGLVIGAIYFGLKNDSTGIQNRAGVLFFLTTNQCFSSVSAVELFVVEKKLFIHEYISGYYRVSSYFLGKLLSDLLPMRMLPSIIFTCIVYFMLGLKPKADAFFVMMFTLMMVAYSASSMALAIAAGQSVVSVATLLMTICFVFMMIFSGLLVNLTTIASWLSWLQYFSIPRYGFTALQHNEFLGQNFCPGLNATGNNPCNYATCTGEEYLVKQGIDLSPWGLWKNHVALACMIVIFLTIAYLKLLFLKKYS", "experiment": "efflux transporter inhibition in vitro", "assay_type": "in vitro ADME", "conditions": "read-out: inhibition of BCRP transport"}, "[18]": {"target": "OCT2 (Homo sapiens, UniProt O15244)", "experiment": "transporter inhibition in vitro", "assay_type": "in vitro ADME"}, "[19]": {"target": "organic anion transporting polypeptide (OATP) 1B1 (Homo sapiens, UniProt Q9Y6L6)", "sequence (Q9Y6L6 whole entry)": "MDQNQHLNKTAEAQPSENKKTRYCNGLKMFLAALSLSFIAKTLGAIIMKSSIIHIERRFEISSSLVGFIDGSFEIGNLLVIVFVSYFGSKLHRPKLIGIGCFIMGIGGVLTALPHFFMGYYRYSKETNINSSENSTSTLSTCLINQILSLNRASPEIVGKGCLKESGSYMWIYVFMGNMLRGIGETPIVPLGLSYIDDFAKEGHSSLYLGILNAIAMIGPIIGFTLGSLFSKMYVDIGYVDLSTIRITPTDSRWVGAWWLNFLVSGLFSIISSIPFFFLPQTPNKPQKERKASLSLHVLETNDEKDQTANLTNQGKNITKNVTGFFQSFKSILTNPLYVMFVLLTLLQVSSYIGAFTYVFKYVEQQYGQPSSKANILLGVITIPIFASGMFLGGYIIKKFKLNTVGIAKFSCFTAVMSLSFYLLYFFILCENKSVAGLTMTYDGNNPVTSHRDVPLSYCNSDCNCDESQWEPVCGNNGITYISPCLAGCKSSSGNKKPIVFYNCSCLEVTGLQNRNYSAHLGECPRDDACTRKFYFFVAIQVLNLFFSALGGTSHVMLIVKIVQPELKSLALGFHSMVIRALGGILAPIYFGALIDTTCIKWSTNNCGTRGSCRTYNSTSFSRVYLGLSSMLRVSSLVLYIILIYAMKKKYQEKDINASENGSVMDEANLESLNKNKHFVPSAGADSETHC", "experiment": "uptake transporter inhibition in vitro", "assay_type": "in vitro ADME", "conditions": "read-out: IC50 OATP1B1"}, "[20]": {"target": "OAT3 (Homo sapiens, UniProt Q8TCC7)", "experiment": "transporter inhibition in vitro", "assay_type": "in vitro ADME"}, "[21]": {"target": "LXRα (Homo sapiens, UniProt Q13133)", "sequence (Q13133 whole entry)": "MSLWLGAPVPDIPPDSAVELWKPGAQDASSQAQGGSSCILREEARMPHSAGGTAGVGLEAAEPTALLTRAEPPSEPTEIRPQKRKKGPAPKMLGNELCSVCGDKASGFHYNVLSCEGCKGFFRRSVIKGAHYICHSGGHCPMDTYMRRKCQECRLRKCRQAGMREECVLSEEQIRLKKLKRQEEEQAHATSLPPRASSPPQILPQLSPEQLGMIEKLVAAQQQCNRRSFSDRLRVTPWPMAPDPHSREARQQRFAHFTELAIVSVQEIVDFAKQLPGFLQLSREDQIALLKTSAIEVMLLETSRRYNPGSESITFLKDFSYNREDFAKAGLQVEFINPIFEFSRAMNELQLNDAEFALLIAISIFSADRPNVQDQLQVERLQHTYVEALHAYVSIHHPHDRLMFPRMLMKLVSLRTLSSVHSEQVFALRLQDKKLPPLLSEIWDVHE", "experiment": "cell-based biosensor assay", "conditions": "read-out: median effective concentration (EC50) for LXRα"}, "[22]": {"experiment": "oral PK study in CD-1 mice", "assay_type": "in vivo"}, "[23]": {"system": "Xenograft A549", "experiment": "Example 2: Xenograft A549 mice, tumor volume", "assay_type": "in vivo", "protocol": "Protocol: Five groups of Xenograft A549 mice were treated and tumor volume tracked for twenty-two days. Group 01 was administered 0.9% Saline, 0 mg/kg cisplatin, Corn Oil, and 0 mg/kg 2-[3-[(3R)-3-[[2-chloro-3-(trifluoromethyl)phenyl]methyl-(2,2-diphenylethyl)amino]butoxy]phenyl]acetic acid; Group 02 was administered 2 mg/kg Cisplatin, Corn Oil, and 0 mg/kg 2-[3-[(3R)-3-[[2-chloro-3-(trifluoromethyl)phenyl]methyl-(2,2-diphenylethyl)amino]butoxy]phenyl]acetic acid; Group 03 was administered 0.9% Saline, 0 mg/kg cisplatin, and 50 mg/kg 2-[3-[(3R)-3-[[2-chloro-3-(trifluoromethyl)phenyl]methyl-(2,2-diphenylethyl)amino]butoxy]phenyl]acetic acid; Group 04 was administered 2 mg/kg cisplatin and 50 mg/kg 2-[3-[(3R)-3-[[2-chloro-3-(trifluoromethyl)phenyl]methyl-(2,2-diphenylethyl)amino]butoxy]phenyl]acetic acid twice per day daily for the entire treatment period; and Group 05 was administered 2 mg/kg cisplatin and 50 mg/kg 2-[3-[(3R)-3-[[2-chloro-3-(trifluoromethyl)phenyl]methyl-(2,2-diphenylethyl)amino]butoxy]phenyl]acetic acid twice per day for five continuous days followed by two days without for the entire treatment period."}, "[24]": {"target": "2B6 (Homo sapiens, UniProt P20813)", "sequence (P20813 whole entry)": "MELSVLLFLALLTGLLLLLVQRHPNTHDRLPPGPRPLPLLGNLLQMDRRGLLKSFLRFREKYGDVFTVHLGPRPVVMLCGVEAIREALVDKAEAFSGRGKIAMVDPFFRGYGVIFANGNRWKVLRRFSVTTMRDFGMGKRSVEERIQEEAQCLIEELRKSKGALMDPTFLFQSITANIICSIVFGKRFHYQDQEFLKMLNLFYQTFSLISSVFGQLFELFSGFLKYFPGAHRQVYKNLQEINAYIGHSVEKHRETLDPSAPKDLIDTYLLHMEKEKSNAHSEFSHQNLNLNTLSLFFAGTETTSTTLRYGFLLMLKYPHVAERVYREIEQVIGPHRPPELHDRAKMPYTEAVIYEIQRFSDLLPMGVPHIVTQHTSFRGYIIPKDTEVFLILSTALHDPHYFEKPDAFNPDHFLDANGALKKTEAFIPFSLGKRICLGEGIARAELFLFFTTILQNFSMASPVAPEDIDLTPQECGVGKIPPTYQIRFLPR", "experiment": "in vitro CYP450 inhibition", "assay_type": "in vitro ADME"}, "[25]": {"conditions": "po, depending on dose and formulation, read-out: mean % F"}},
  "note": "pEC50, pIC50: −log10 of the molar value.",
  "data": [
    {"compound": "C[C@H](CCOc1cccc(CC(=O)O)c1)N(Cc1cccc(C(F)(F)F)c1Cl)CC(c1ccccc1)c1ccccc1", "note": "[2-[3-[(3R)-3-[[2-chloro-3-(trifluoromethyl)phenyl]methyl-(2,2-diphenylethyl)amino]butoxy]phenyl]acetic acid]", "values": [
      {"measurement": "reduction of MDSCs in circulation", "setting": "[1]; in circulation", "value": "~40", "unit": "%"},
      {"measurement": "reduction of MDSCs in tumors", "setting": "[1]; in tumors", "value": "> 60", "unit": "%"},
      {"measurement": "substrate for CYP2E1", "setting": "[2]", "value": "a substrate"},
      {"measurement": "inhibition of 2E1", "setting": "[3]", "value": "very weakly inhibited"},
      {"measurement": "inhibition of metastatic spread of cancer cells", "setting": "[4]", "value": "~9", "unit": "fold"},
      {"measurement": "suppression of cancer cell invasion", "setting": "[5]", "value": "~45", "unit": "%"},
      {"measurement": "Tmax", "setting": "[6]; oral dose", "value": "4 to 8", "unit": "h"},
      {"measurement": "bioavailability", "setting": "[6]; [25]", "value": "18 to 30", "unit": "%"},
      {"measurement": "half-life", "setting": "[6]; po, read-out: mean apparent oral t½", "value": "5 to 6.7", "unit": "h"},
      {"measurement": "inhibition of 3A4", "setting": "[7]", "value": "very weakly inhibited"},
      {"measurement": "substrate for CYP2C19", "setting": "[8]", "value": "a substrate"},
      {"measurement": "Tmax", "setting": "[9]; oral dose", "value": 4, "unit": "h"},
      {"measurement": "bioavailability", "setting": "[9]; [25]", "value": "6 to 19", "unit": "%"},
      {"measurement": "half-life", "setting": "[9]; po, read-out: mean oral t½", "value": "5.5 to 8", "unit": "h"},
      {"measurement": "inhibition of P-gp", "setting": "[10]", "value": "does not inhibit"},
      {"measurement": "pIC50", "setting": "[11]", "value": 5.43},
      {"measurement": "exposures at minimum efficacious doses", "setting": "[12]; 25-40 mg/kg/day PO", "value": "10,000-50,000 ng-h/mL"},
      {"measurement": "minimum efficacious doses", "setting": "[12]; administered orally (PO)", "value": "25 to 40", "unit": "mg/kg/day"},
      {"measurement": "pIC50", "setting": "[13]", "value": 5.12},
      {"measurement": "inhibition of 1A1", "setting": "[14]", "value": "very weakly inhibited"},
      {"measurement": "liver function", "setting": "[15]", "value": "Liver function abnormalities have been observed"},
      {"measurement": "substrate for CYP2C9", "setting": "[16]", "value": "a substrate"},
      {"measurement": "inhibition at 5 µM", "setting": "[17]", "value": 55, "unit": "%"},
      {"measurement": "inhibition at 50 µM", "setting": "[18]", "value": "< 50", "unit": "%"},
      {"measurement": "pIC50", "setting": "[19]", "value": 7.00},
      {"measurement": "inhibition at 50 µM", "setting": "[20]", "value": "< 50", "unit": "%"},
      {"measurement": "pEC50", "setting": "[21]", "value": 6.47},
      {"measurement": "half-life", "setting": "[22]; CD-1, mouse, plasma, po, mice, read-out: mean apparent oral half-life (t½)", "value": "6.5 to 8", "unit": "h"},
      {"measurement": "Tmax", "setting": "[22]; both sexes, mouse, plasma, po, CD-1 mice, males and females, read-out: time to maximum plasma concentration (Tmax)", "value": "2 to 8", "unit": "h"},
      {"measurement": "food effect: plasma concentrations higher in the fed state", "setting": "[22]; mice, fed state", "value": "> 2", "unit": "fold"},
      {"measurement": "bioavailability", "setting": "[22]; mouse, plasma, CD-1 mice, oral, read-out: absolute oral bioavailability (% F)", "value": "> 100", "unit": "%"},
      {"measurement": "mean tumor volume", "setting": "[23]; Group 03: 50 mg/kg, 0.9% saline, 0 mg/kg cisplatin, day 0", "value": 86.36},
      {"measurement": "mean tumor volume", "setting": "[23]; Group 03: 50 mg/kg, 0.9% saline, 0 mg/kg cisplatin, day 3", "value": 98.82},
      {"measurement": "mean tumor volume", "setting": "[23]; Group 03: 50 mg/kg, 0.9% saline, 0 mg/kg cisplatin, day 6", "value": 125.97},
      {"measurement": "mean tumor volume", "setting": "[23]; Group 03: 50 mg/kg, 0.9% saline, 0 mg/kg cisplatin, day 9", "value": 232.26},
      {"measurement": "mean tumor volume", "setting": "[23]; Group 03: 50 mg/kg, 0.9% saline, 0 mg/kg cisplatin, day 12", "value": 354.70},
      {"measurement": "mean tumor volume", "setting": "[23]; Group 03: 50 mg/kg, 0.9% saline, 0 mg/kg cisplatin, day 15", "value": 507.62},
      {"measurement": "mean tumor volume", "setting": "[23]; Group 03: 50 mg/kg, 0.9% saline, 0 mg/kg cisplatin, day 19", "value": 1053.57},
      {"measurement": "mean tumor volume", "setting": "[23]; Group 03: 50 mg/kg, 0.9% saline, 0 mg/kg cisplatin, day 22", "value": 1151.02},
      {"measurement": "mean tumor volume", "setting": "[23]; Group 04: 50 mg/kg twice per day daily + 2 mg/kg cisplatin, day 0, in mm³ (unit assumed)", "value": 86.71},
      {"measurement": "mean tumor volume", "setting": "[23]; Group 04: 50 mg/kg twice per day daily + 2 mg/kg cisplatin, day 3", "value": 94.50},
      {"measurement": "mean tumor volume", "setting": "[23]; Group 04: 50 mg/kg twice per day daily + 2 mg/kg cisplatin, day 6", "value": 111.80},
      {"measurement": "mean tumor volume", "setting": "[23]; Group 04: 50 mg/kg twice per day daily + 2 mg/kg cisplatin, day 9, in mm³ (unit assumed)", "value": 214.76},
      {"measurement": "mean tumor volume", "setting": "[23]; Group 04: 50 mg/kg twice per day daily + 2 mg/kg cisplatin, day 12, in mm³ (unit assumed)", "value": 315.64},
      {"measurement": "mean tumor volume", "setting": "[23]; Group 04: 50 mg/kg twice per day daily + 2 mg/kg cisplatin, day 15, in mm³ (unit assumed)", "value": 315.55},
      {"measurement": "mean tumor volume", "setting": "[23]; Group 04: 50 mg/kg twice per day daily + 2 mg/kg cisplatin, day 19", "value": 748.19},
      {"measurement": "mean tumor volume", "setting": "[23]; Group 04: 50 mg/kg twice per day daily + 2 mg/kg cisplatin, day 22", "value": 875.67},
      {"measurement": "mean tumor volume", "setting": "[23]; Group 05: 50 mg/kg twice per day five days then two days without + 2 mg/kg cisplatin, day 0, in mm³ (unit assumed)", "value": 86.32},
      {"measurement": "mean tumor volume", "setting": "[23]; Group 05: 50 mg/kg twice per day five days then two days without + 2 mg/kg cisplatin, day 3", "value": 97.27},
      {"measurement": "mean tumor volume", "setting": "[23]; Group 05: 50 mg/kg twice per day five days then two days without + 2 mg/kg cisplatin, day 6", "value": 129.15},
      {"measurement": "mean tumor volume", "setting": "[23]; Group 05: 50 mg/kg twice per day five days then two days without + 2 mg/kg cisplatin, day 9, in mm³ (unit assumed)", "value": 212.99},
      {"measurement": "mean tumor volume", "setting": "[23]; Group 05: 50 mg/kg twice per day five days then two days without + 2 mg/kg cisplatin, day 12, in mm³ (unit assumed)", "value": 334.58},
      {"measurement": "mean tumor volume", "setting": "[23]; Group 05: 50 mg/kg twice per day five days then two days without + 2 mg/kg cisplatin, day 15, in mm³ (unit assumed)", "value": 345.20},
      {"measurement": "mean tumor volume", "setting": "[23]; Group 05: 50 mg/kg twice per day five days then two days without + 2 mg/kg cisplatin, day 19", "value": 680.16},
      {"measurement": "mean tumor volume", "setting": "[23]; Group 05: 50 mg/kg twice per day five days then two days without + 2 mg/kg cisplatin, day 22", "value": 830.27},
      {"measurement": "pIC50", "setting": "[24]", "value": 4.82}
    ]}
  ]
}
